Tests used:
Type in all cases: cell-based
P2Y11 receptor [1] = target: T1, P2Y11 receptor (Homo sapiens, UniProt Q96G91, DUP173-173); test: Inositol trisphosphate (IP3) accumulation in 1321N1 astrocytoma cells transfected with the new receptor; details: for Effect on IP3 accumulation in concentration-action curves: large range of concentrations, FIG. 4A; for Agonist efficacy compared with ATP: same for the phosphoinositide and cAMP pathways; for IP3 accumulation in response to nucleotide: 100 μM, pool of G418-resistant P2Y11-transfected 1321N1 clones
T1 construct: expressed in transfected cells; host or cells: 1321N1 astrocytoma cells and CHO-K1 cells, G418-selected, pEFIN3 bicistronic vector
T1 sequence (Q96G91 with tags, fused parts or gaps DUP173-173): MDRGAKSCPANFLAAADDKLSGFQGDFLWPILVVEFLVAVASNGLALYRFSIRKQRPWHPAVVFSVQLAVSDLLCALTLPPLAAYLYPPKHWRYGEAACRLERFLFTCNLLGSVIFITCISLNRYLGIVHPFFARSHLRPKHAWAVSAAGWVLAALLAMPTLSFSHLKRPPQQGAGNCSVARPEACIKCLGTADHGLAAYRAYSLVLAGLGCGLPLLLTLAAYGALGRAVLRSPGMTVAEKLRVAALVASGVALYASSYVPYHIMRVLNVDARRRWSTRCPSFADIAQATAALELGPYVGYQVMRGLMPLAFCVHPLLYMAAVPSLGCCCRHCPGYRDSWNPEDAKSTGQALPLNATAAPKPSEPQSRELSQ
Description: (§1) The complete sequence of the new receptor according to the invention was subcloned between the Hind III and Nhe I sites of the bicistronic pEFIN3 expression vector. 1321N1 and CHO-K1 cells were transfected with the recombinant pEFIN3 plasmid or with the plasmid alone using the calcium phosphate precipitation method as described (19). The transfected cells were selected with 400 μg/ml G418 in complete medium (10% FCS, 100 units/ml penicillin, 100 μg/ml streptomycin and 2.5 μg/ml amphotericin B in Duibecco's modified Eagle's medium (DMEM)) two days after transfection and maintained in the same medium (10).
1321N1 cells were labelled for 24 hours with […] [^3H] inositol in inositol free DMEM containing 5% FCS, antibiotics, amphotericin, sodium pyruvate and 400 μg/ml G418. Cells were washed twice with Krebs-Ringer Hepes (KRH) buffer of the following composition (124 mM NaCl, 5 mM KC1, 1.25 mM MgSO4, 1.45 mM CaCl2, 1.25 mM KH2PO4, 25 mM Hepes (pH:7.4) and 8 mM glucose) and incubated in the same medium for 30 min. The cells were then challenged by various nucleotides for 30 s. The incubation was stopped by the addition of an ice cold 3% perchioric acid solution. IP were extracted and separated on Dowex columns as previously described (20).
(§2) The complete sequence of the new receptor was introduced in the pEFIN3 expression vector in order to transfect the 1321N1 astrocytoma cell line, used previously to characterize several P2Y subtypes (6, 10, 12). The pool of G418-resistant clones was tested for its functional response to several nucleotides.

P2Y11 receptor [2] = target: T1, P2Y11 receptor; test: cAMP accumulation in CHO-K1 cells transfected with the new receptor; details: for Inhibition of the cAMP response to ATP (30 μM): indomethacin 10 μg/ml from 30 min before, 8 (p-sulfophenyl) theophylline 100 μM; for cAMP content in response to nucleotide: 100 μM, pool of G418 resistant P2Y11-transfected CHO-K1 clones
Description: as §1
(§3) Stably transfected CHO-K1 or 1321N1 cell lines were spread on Petri dishes (150.000 cells per dish) and cultured in Ham's F12 or DMEM medium containing 10% FCS, antibiotics, amphotericin, sodium pyruvate and 400 μg/ml G418. Cells were preincubated for 30 min in KRH buffer with Rolipram (25 μM) and incubated for different times in the presence of the agonists (15 min in most experiments). The incubation was stopped by the addition of 1 ml HC1 0.1 M. The incubation medium was dried up, resuspended in water and diluted as required. Cyclic AMP was quantified by radioimmunoassay after acetylation as previously described (21).
(§4) A much lower but significant endogeneous response due to the degradation of adenine nucleotides into adenosine was also obtained in the 1321N1 cells transfected with the vector alone. […] We therefore used CHO-K1 cells in order to characterize the coupling of the new receptor to the cAMP pathway. A pool of G418 resistant CHO-K1 clones was first tested for its response to several nucleotides at a concentration of 100 μM. […] The rank order of potency was the same as in the inositol phosphate study on 1321N1 cells.

P2Y11 receptor [3] = target: T1, P2Y11 receptor; test: [Ca2+]i measurements on 1321N1 transfected cells; details: 10 μM
Description: as §2, with “nucleotides. […] The effect of ADP and 2MeSADP were minimal.” for “nucleotides.”

[4] = tested on: CHO-K1 cells transfected with the vector alone; test: cAMP in CHO-K1 cells transfected with the vector alone or untransfected; details: 100 μM
Description: as §1
as §3, with “(21). […]” for “(21).”

P2Y11 receptor [5] = target: T1, P2Y11 receptor; test: cAMP measurement in 1321N1 cells transfected with the new receptor
Description: as §3, §4

Compound	IP3 accumulation in response to nucleotide (P2Y11 receptor [1]; 30 s)	cAMP content in response to nucleotide (P2Y11 receptor [2])	further results
CSc1nc(N)c2ncn([C@@H]3O[C@H](COP(=O)(O)OP(=O)(O)O)[C@@H](O)[C@H]3O)c2n1 [2MeSADP, 2-methylthio-ADP]	–	–	Effect on IP3 accumulation in concentration-action curves (P2Y11 receptor [1]): minimal; Agonist efficacy compared with ATP (P2Y11 receptor [1]): almost inactive
CSc1nc(N)c2ncn([C@@H]3O[C@H](COP(=O)(O)OP(=O)(O)OP(=O)(O)O)[C@@H](O)[C@H]3O)c2n1 [2MeSATP, 2-methylthio-ATP]	–	–	EC50 (P2Y11 receptor [1]; P2Y11-transfected 1321N1 cells, 30 s, means±range of two independent experiments): 118 ± 15 µM; Agonist efficacy compared with ATP (P2Y11 receptor [1]): same maximal effect than ATP but presented a lower potency
Cn1c(=O)c2[nH]c(-c3ccc(S(=O)(=O)O)cc3)nc2n(C)c1=O [8 (p-sulfophenyl) theophylline]	–	–	Inhibition of the cAMP response to ATP (30 μM) (P2Y11 receptor [2]): inhibited neither
Nc1ncnc2c1ncn2[C@@H]1O[C@H](COP(=O)(O)OP(=O)(O)O)[C@@H](O)[C@H]1O [ADP]	inactive	completely inactive	Effect on IP3 accumulation in concentration-action curves (P2Y11 receptor [1]): minimal; [Ca2+]i response (P2Y11 receptor [3]): inactive
Nc1ncnc2c1ncn2[C@@H]1O[C@H](COP(=O)(O)O)[C@@H](O)[C@H]1O [AMP]	inactive	completely inactive	–
Nc1ncnc2c1ncn2[C@@H]1O[C@H](COP(=O)(O)OP(=O)(O)OP(=O)(O)OP(=O)(O)OC[C@H]2O[C@@H](n3cnc4c(N)ncnc43)[C@H](O)[C@@H]2O)[C@@H](O)[C@H]1O [AP4A]	inactive	–	–
Nc1ncnc2c1ncn2[C@@H]1O[C@H](COP(=O)(O)OP(=O)(O)OP(=O)(O)OP(=O)(O)OP(=O)(O)OP(=O)(O)OC[C@H]2O[C@@H](n3cnc4c(N)ncnc43)[C@H](O)[C@@H]2O)[C@@H](O)[C@H]1O [AP6A]	inactive	–	–
Nc1ncnc2c1ncn2[C@@H]1O[C@H](COP(=O)(O)OP(=O)(O)OP(=O)(O)O)[C@@H](O)[C@H]1O [ATP]	strong inositol trisphosphate (IP3) accumulation	strong increase in the cAMP content	cAMP content in vector-alone cells [4]: inactive; cAMP response (P2Y11 receptor [5]): strong cAMP increase; cAMP response after short stimulation (P2Y11 receptor [2]; after 2 min of stimulation, CHO-K1): significant cAMP response; [Ca2+]i response (P2Y11 receptor [3]): response
O=c1ccn([C@@H]2O[C@H](COP(=O)(O)OP(=O)(O)O)[C@@H](O)[C@H]2O)c(=O)[nH]1 [UDP]	inactive	completely inactive	–
O=c1ccn([C@@H]2O[C@H](COP(=O)(O)OP(=O)(O)OP(=O)(O)O)[C@@H](O)[C@H]2O)c(=O)[nH]1 [UTP]	inactive	completely inactive	–
Nc1ncnc2c1ncn2[C@@H]1O[C@H](CO)[C@@H](O)[C@H]1O [adenosine]	inactive	completely inactive	–
COc1ccc2c(c1)c(CC(=O)O)c(C)n2C(=O)c1ccc(Cl)cc1 [indomethacin, Indomethacin]	–	–	Inhibition of the cAMP response to ATP (30 μM) (P2Y11 receptor [2]): inhibited neither
Pertussis toxin	–	–	Effect on the ATP response (IP3) (P2Y11 receptor [1]; pertussis toxin 50 ng/ml, 24 h pretreatment): no effect

Source: patent US7288631B2 (Euroscreen, s.a., priority 1997, dated 2007)
